What was measured:
[1] = target: T1, USP7, Active human recombinant protein (Homo sapiens, UniProt Q93009); assay: USP7 assay (Ubiquitin-Rhodamine 110 enzymatic assay); assay type: biochemical; details: read-out: IC50
T1 construct: purchased CP Lot; 20200225001
Outline: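 Human recombinant USP7 (0.05 nM final) preincubated with compound, 10-point 3-fold series, 15 min at RT. Reaction started with 190 nM ubiquitin-rhodamine 110. Fluorescence (ex 485/em 535 nm) read kinetically 20 min. Slopes normalized to enzyme+substrate and substrate-only controls; IC50 from curve fit.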

[2] = mouse liver microsomal stability (Microsome Assay Protocol); assay type: in vitro ADME; details: pH 7.4; mouse liver microsomes, NADPH, 37° C.; read-out: MLM t1/2, min
Experimental: ND refers to not disclosed.
• 1. Buffer A: 1.0 L of 0.1 M monobasic Potassium Phosphate buffer containing 1.0 mM EDTA Buffer B: 1.0 L of 0.1 M Dibasic Potassium Phosphate buffer containing 1.0 mM EDTA • Buffer C: 0.1 M Potassium Phosphate buffer, 1.0 mM EDTA, pH 7.4 by titrating 700 mL of buffer B with buffer A while monitoring with a pH meter. • 2. Reference compound (Ketanserin) and test compounds spiking solution: • 500 μM spiking solution: added 10 μL of 10 mM DMSO stock solution into 190 μL ACN. • 1.5 μM spiking solution in microsomes (0.75 mg/mL): added 1.5 μL of 500 μM spiking solution and 18.75 μL of 20 mg/mL liver microsomes into 479.75 μL of Buffer C on ice. • 3. Prepared NADPH stock solution (6 mM) by dissolving NADPH into buffer C. Dispensed 30 μL of 1.5 μM spiking solution containing 0.75 mg/mL microsomes solution to the assay plates designated for different time points (0-, 5-, 15-, 30-, 45-min) on ice. For 0-min, added 135 μL of ACN containing IS to the wells of 0-min plate and then added 15 μL of NADPH stock solution (6 mM). Pre-incubated all other plates at 37° C. for 5 minutes. Added 15 μL of NADPH stock solution (6 mM) to the plates to start the reaction and timing. At 5-min, 15-min, 30-min, and 45-min, added 135 μL of ACN containing IS to the wells of corresponding plates, respectively, to stop the reaction. After quenching, shook the plates at the vibrator (IKA, MTS 2/4) for 10 min (600 rpm/min) and then centrifuged at 5594 g for 15 min (Thermo Multifuge×3R). Transferred 50 μL of the supernatant from each well into a 96-well sample plate containing 50 μL of ultra pure water (Millipore, ZMQS50F01) for LC/MS analysis.

T1 sequence (Q93009 whole entry): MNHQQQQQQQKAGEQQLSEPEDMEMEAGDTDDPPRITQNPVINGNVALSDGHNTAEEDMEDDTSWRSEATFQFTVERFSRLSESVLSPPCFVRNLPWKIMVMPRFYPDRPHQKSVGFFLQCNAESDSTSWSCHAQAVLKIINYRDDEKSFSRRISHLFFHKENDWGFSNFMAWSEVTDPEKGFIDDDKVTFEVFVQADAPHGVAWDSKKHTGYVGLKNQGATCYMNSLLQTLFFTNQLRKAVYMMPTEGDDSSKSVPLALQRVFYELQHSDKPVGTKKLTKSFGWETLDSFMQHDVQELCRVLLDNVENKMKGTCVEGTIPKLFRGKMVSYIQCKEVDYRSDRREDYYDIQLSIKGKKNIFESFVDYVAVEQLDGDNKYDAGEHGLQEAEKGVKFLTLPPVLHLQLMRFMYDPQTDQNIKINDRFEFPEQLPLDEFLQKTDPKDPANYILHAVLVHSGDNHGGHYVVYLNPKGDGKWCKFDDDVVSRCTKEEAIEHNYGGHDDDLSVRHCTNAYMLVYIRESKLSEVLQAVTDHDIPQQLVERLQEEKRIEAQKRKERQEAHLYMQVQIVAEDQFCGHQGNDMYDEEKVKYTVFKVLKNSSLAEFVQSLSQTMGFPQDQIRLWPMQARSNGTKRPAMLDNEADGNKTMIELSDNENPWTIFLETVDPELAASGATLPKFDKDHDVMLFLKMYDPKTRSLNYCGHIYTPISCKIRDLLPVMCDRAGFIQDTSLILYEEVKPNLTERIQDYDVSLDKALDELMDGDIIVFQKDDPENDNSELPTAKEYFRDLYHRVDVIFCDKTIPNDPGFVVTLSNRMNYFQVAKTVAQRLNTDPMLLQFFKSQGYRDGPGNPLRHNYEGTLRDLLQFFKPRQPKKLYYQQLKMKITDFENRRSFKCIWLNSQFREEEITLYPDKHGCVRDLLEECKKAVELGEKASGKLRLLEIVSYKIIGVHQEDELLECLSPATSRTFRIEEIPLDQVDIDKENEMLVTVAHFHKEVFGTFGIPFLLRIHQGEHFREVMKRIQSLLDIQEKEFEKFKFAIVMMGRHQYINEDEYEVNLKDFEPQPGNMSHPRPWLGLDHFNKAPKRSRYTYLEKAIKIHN

SMILES	IC50 [1] [µM]	half-life at 1 µM [2] [min]
O=C(NCCCC(Cc1ccccc1)C(=O)N1CCC(O)(Cn2cnc3c(cnn3-c3ccc(F)cc3)c2=O)CC1)c1ccc2c(Cl)ccnc2c1 (centres unmarked) [Compound 6, N-(4-benzyl-5-(4-((1-(4-fluorophenyl)-4-oxo-1,4-dihydro-5H-pyrazolo[3,4-d]pyrimidin-5-yl)methyl)-4-hydroxypiperidin-1-yl)-5-oxopentyl)-4-chloroquinoline-7-carboxamide]	0.02 to 0.1	1
Nc1ccc(-n2ncc3c(=O)n(CC4(O)CCN(C(=O)C(CCCNC(=O)c5ccc6c(Cl)ccnc6c5)Cc5ccccc5)CC4)cnc32)cc1 (centres unmarked) [Compound 7, N-(5-(4-((1-(4-aminophenyl)-4-oxo-1,4-dihydro-5H-pyrazolo[3,4-d]pyrimidin-5-yl)methyl)-4-hydroxypiperidin-1-yl)-4-benzyl-5-oxopentyl)-4-chloroquinoline-7-carboxamide]	< 0.02	4.3
Cn1nc2c(=O)n(CC3(O)CCN(C(=O)C(CCCNC(=O)c4ccc5c(Cl)ccnc5c4)Cc4ccccc4)CC3)cnc2c1-c1cccc(C#N)c1 (centres unmarked) [Compound 10, N-(4-benzyl-5-(4-((3-(3-cyanophenyl)-2-methyl-7-oxo-2,7-dihydro-6H-pyrazolo[4,3-d]pyrimidin-6-yl)methyl)-4-hydroxypiperidin-1-yl)-5-oxopentyl)-4-chloroquinoline-7-carboxamide]	0.02 to 0.1	1.5
O=C(NCCCC(Cc1ccccc1)C(=O)N1CCC(O)(Cn2cnc(NCCN3CCCC3)cc2=O)CC1)c1ccc2c(Cl)ccnc2c1 (centres unmarked) [Compound 11, N-(4-benzyl-5-(4-hydroxy-4-((6-oxo-4-(2-(pyrrolidin-1-yl)ethylamino)pyrimidin-1(6H)-yl)methyl)piperidin-1-yl)-5-oxopentyl)-4-chloroquinoline-7-carboxamide]	0.02 to 0.1	12.1
CN1CCN(CCC(=O)Nc2ccc3c(=O)n(CC4(O)CCN(C(=O)C(CCCNC(=O)c5ccc6c(Cl)cc(-c7cnn(CC(F)(F)F)c7)nc6c5)Cc5ccccc5)CC4)cnc3c2)CC1 (centres unmarked) [Compound 18, N-(4-benzyl-5-(4-hydroxy-4-((7-(3-(4-methylpiperazin-1-yl)propanamido)-4-oxoquinazolin-3(4H)-yl)methyl)piperidin-1-yl)-5-oxopentyl)-4-chloro-2-(1-(2,2,2-trifluoroethyl)-1H-pyrazol-4-yl)quinoline-7-carboxamide]	0.02 to 0.1	21.2
CN1CCN(CCC(=O)Nc2ccc3c(=O)n(CC4(O)CCN(C(=O)C(CCCNC(=O)c5ccc6c(Cl)cc(C7(F)CC7)nc6c5)Cc5ccccc5)CC4)cnc3c2)CC1 (centres unmarked) [Compound 21, N-(4-benzyl-5-(4-hydroxy-4-((7-(3-(4-methylpiperazin-1-yl)propanamido)-4-oxoquinazolin-3(4H)-yl)methyl)piperidin-1-yl)-5-oxopentyl)-4-chloro-2-(1-fluorocyclopropyl)quinoline-7-carboxamide]	> 1	18.5
CN1CCN(CCn2cc3ncn(CC4(O)CCN(C(=O)C(CCCNC(=O)c5ccc6c(Cl)ccnc6c5)Cc5ccccc5)CC4)c(=O)c3n2)CC1 (centres unmarked) [Compound 27]	> 1	20
CN1CCN(CC(=O)Nc2ccc3c(=O)n(CC4(O)CCN(C(=O)C(CCCNC(=O)c5ccc6c(Cl)ccnc6c5)Cc5ccccc5)CC4)cnc3c2)CC1 (centres unmarked) [Compound 29, N-(4-benzyl-5-(4-hydroxy-4-((7-(2-(4-methylpiperazin-1-yl)acetamido)-4-oxoquinazolin-3(4H)-yl)methyl)piperidin-1-yl)-5-oxopentyl)-4-chloroquinoline-7-carboxamide]	0.02 to 0.1	16.7
CN(C)CC(=O)Nc1ccc2c(=O)n(CC3(O)CCN(C(=O)C(CCCNC(=O)c4ccc5c(Cl)c6c(nc5c4)CN(C)C6)Cc4ccccc4)CC3)cnc2c1 (centres unmarked) [Compound 31, N-(4-benzyl-5-(4-((7-(2-(dimethylamino)acetamido)-4-oxoquinazolin-3(4H)-yl)methyl)-4-hydroxypiperidin-1-yl)-5-oxopentyl)-9-chloro-2-methyl-2,3-dihydro-1H-pyrrolo[3,4-b]quinoline-6-carboxamide]	0.1 to 1	2.9
CN(C)CC(=O)Nc1ccc2c(=O)n(CC3(O)CCN(C(=O)C(CCCNC(=O)c4ccc5c(Cl)c6c(nc5c4)CCN(C)C6)Cc4ccccc4)CC3)cnc2c1 (centres unmarked) [Compound 32, N-(4-benzyl-5-(4-((7-(2-(dimethylamino)acetamido)-4-oxoquinazolin-3(4H)-yl)methyl)-4-hydroxypiperidin-1-yl)-5-oxopentyl)-10-chloro-2-methyl-1,2,3,4-tetrahydrobenzo[b][1,6]naphthyridine-7-carboxamide]	0.02 to 0.1	2.5
CC(=O)N1CCc2nc3cc(C(=O)NCCCC(Cc4ccccc4)C(=O)N4CCC(O)(Cn5cnc6cc(NC(=O)CN(C)C)ccc6c5=O)CC4)ccc3c(Cl)c2C1 (centres unmarked) [Compound 33, 2-acetyl-N-(4-benzyl-5-(4-((7-(2-(dimethylamino)acetamido)-4-oxoquinazolin-3(4H)-yl)methyl)-4-hydroxypiperidin-1-yl)-5-oxopentyl)-10-chloro-1,2,3,4-tetrahydrobenzo[b][1,6]naphthyridine-7-carboxamide]	< 0.02	2.1
CN(C)CCC(=O)Nc1ccc2c(=O)n(CC3(O)CCN(C(=O)C(CCCNC(=O)c4ccc5c(Cl)c6c(nc5c4)CN(C)CC6)Cc4ccccc4)CC3)cnc2c1 (centres unmarked) [Compound 40, N-(4-benzyl-5-(4-((7-(3-(dimethylamino)propanamido)-4-oxoquinazolin-3(4H)-yl)methyl)-4-hydroxypiperidin-1-yl)-5-oxopentyl)-5-chloro-2-methyl-1,2,3,4-tetrahydrobenzo[b][1,7]naphthyridine-8-carboxamide]	0.02 to 0.1	7.4
CN(C)CCC(=O)Nc1ccc2c(=O)n(CC3(O)CCN(C(=O)C(CCCNC(=O)c4ccc5c(Cl)ccnc5n4)Cc4ccccc4)CC3)cnc2c1 (centres unmarked) [Compound 47, N-(4-benzyl-5-(4-((7-(3-(dimethylamino)propanamido)-4-oxoquinazolin-3(4H)-yl)methyl)-4-hydroxypiperidin-1-yl)-5-oxopentyl)-5-chloro-1,8-naphthyridine-2-carboxamide]	0.02 to 0.1	12.4
Cc1cc(Cl)c2ccc(C(=O)NCCCC(Cc3ccccc3)C(=O)N3CCC(O)(Cn4cnc5cc(NC(=O)CCN(C)C)ccc5c4=O)CC3)cc2n1 (centres unmarked) [Compound 49, N-(4-benzyl-5-(4-((7-(3-(dimethylamino)propanamido)-4-oxoquinazolin-3(4H)-yl)methyl)-4-hydroxypiperidin-1-yl)-5-oxopentyl)-4-chloro-2-methylquinoline-7-carboxamide]	< 0.02	13.5
CN(C)CCC(=O)Nc1ccc2c(=O)n(CC3(O)CCN(C(=O)c4cn(CCNC(=O)c5ccc6c(Cl)ccnc6c5)nc4Cc4ccccc4)CC3)cnc2c1 [Compound 52, N-(2-(3-benzyl-4-(4-((7-(3-(dimethylamino)propanamido)-4-oxoquinazolin-3(4H)-yl)methyl)-4-hydroxypiperidine-1-carbonyl)-1H-pyrazol-1-yl)ethyl)-4-chloroquinoline-7-carboxamide]	0.1 to 1	15.1
CN(C)CCC(=O)Nc1ccc2c(=O)n(CC3(O)CCN(C(=O)C4CN(CCNC(=O)c5ccc6c(Cl)ccnc6c5)CC4Cc4ccccc4)CC3)cnc2c1 (centres unmarked) [Compound 54]	0.02 to 0.1	36.5
